Columns and labels:
L929 = experiment: Antiproliferative activity against mouse L929 cells after 48 hrs by CCK8 assay; assay type: cell-based; conditions: L929, 48 h
HeLa = experiment: Antiproliferative activity against human HeLa cells after 48 hrs by CCK8 assay; assay type: functional, cell-based
[1] = Antiproliferative activity against human SMMC7721 cells after 48 hrs by CCK8 assay; assay type: functional, cell-based; conditions: SMMC-7721, 48 h
A549 = experiment: Antiproliferative activity against human A549 cells after 48 hrs by CCK8 assay; assay type: functional, cell-based; conditions: A549, 48 h

Row | SMILES | IC50 (L929) | IC50 (HeLa) | IC50 [1] | IC50 (A549)
1 | CCSc1n[nH]c(-n2[se]c3ccccc3c2=O)n1 | 35.2 µM | 14.1 µM | 10 µM | 39.6 µM
2 | Cc1ccccc1CSc1n[nH]c(-n2[se]c3ccccc3c2=O)n1 | 15.6 µM | 6.13 µM | 36.2 µM | 9.72 µM
3 | CC(C)CSc1n[nH]c(-n2[se]c3ccccc3c2=O)n1 | 33.4 µM | 34.9 µM | 35 µM | 37.8 µM
4 | O=c1c2ccccc2[se]n1-c1nc(SCc2ccccc2)n[nH]1 | > 50 µM | > 50 µM | 32 µM | > 50 µM
5 | CCCSc1n[nH]c(-n2[se]c3ccccc3c2=O)n1 | 31.8 µM | 30.4 µM | 6.02 µM | 45.5 µM
6 | CCCCSc1n[nH]c(-n2[se]c3ccccc3c2=O)n1 | 30.4 µM | 32.9 µM | 16.8 µM | 12.5 µM
7 | O=c1c2ccccc2[se]n1CCn1[se]c2ccccc2c1=O [ETHASELEN] | > 50 µM | 15.9 µM | 10.7 µM | 3.26 µM
8 | Cc1cccc(CSc2n[nH]c(-n3[se]c4ccccc4c3=O)n2)c1 | > 50 µM | 42.6 µM | 9.04 µM | 12.4 µM
9 | CC(C)Sc1n[nH]c(-n2[se]c3ccccc3c2=O)n1 | 37.1 µM | 34.6 µM | 6.01 µM | 36.6 µM
10 | O=c1[nH]cc(F)c(=O)[nH]1 [FLUOROURACIL] | 2.98 µM | 17.2 µM | – | –
11 | CCCCCSc1n[nH]c(-n2[se]c3ccccc3c2=O)n1 | 33.5 µM | 30.3 µM | 31.4 µM | 21.1 µM
12 | O=c1c2ccccc2[se]n1-c1nc(SCc2ccc(F)cc2)n[nH]1 | > 50 µM | > 50 µM | 46.1 µM | 36.4 µM
13 | O=c1c2ccccc2[se]n1-c1nc(SCc2ccc([N+](=O)[O-])cc2)n[nH]1 | 7.43 µM | 3.94 µM | 8.91 µM | 9.14 µM
14 | CCCCCCSc1n[nH]c(-n2[se]c3ccccc3c2=O)n1 | 39.3 µM | 35.9 µM | 22.4 µM | 20.3 µM
15 | Cc1ccc(CSc2n[nH]c(-n3[se]c4ccccc4c3=O)n2)cc1 | > 50 µM | 34.8 µM | > 50 µM | > 50 µM
16 | O=c1c2ccccc2[se]n1-c1nc(SCc2ccc(Cl)cc2)n[nH]1 | 39.5 µM | 40.9 µM | 33.9 µM | 42.1 µM
